In ChEMBL document CHEMBL1156342, “Five new diprenylated flavonols from the leaves of Broussonetia kazinoki” (2001) one finds EC50 data, which are given here for seven compounds.

What all share (format): functional
Assay [1] concerns HCT-8. The experiment in a line: Cytotoxicity against human HCT8 cells after 5 days by MTT assay. To be noted: HCT-8, 120 h, read-out: ED50 (the source's name).
Assay [2] has as its system KB. In words: Cytotoxicity against human KB cells after 5 days by MTT assay. To be noted: 120 h, read-out: ED50 (the source's name). (Tetrazolium dyes change colour on reduction, which living cells bring about.)
The subject of assay [3] is A549. The experiment in a line: Cytotoxicity against human A549 cells after 5 days by MTT assay. The note with it: A549, 120 h, read-out: ED50 (the source's name).

≈ marks a conversion by molar mass, not a printed value.

As to `CC(C)=CCc1c(CCCc2ccc(O)cc2O)cc(O)c(O)c1CC=C(C)C` [KAZINOL F], the EC50 in assay [1], in assay [2] and in assay [3] was greater than 10 µg/mL throughout.
As for `CC(C)=CCc1cc(-c2oc3c(CC=C(C)C)c(O)cc(O)c3c(=O)c2O)cc(O)c1O` [BROUSSONOL D], the EC50 in assay [1] was greater than 10 µg/mL; in assay [2], 4.15 µg/mL (≈ 9.46 µM); in assay [3], greater than 10 µg/mL.
Turning to `C=CC(C)(C)c1c(O)cc(O)c2c(=O)c(O)c(-c3cc(O)c4c(c3)C=CC(C)(C)O4)oc12` [BROUSSONOL A], the EC50 is 9.1 µg/mL (≈ 20.8 µM) in assay [1], greater than 10 µg/mL in assay [2] and 8.74 µg/mL (≈ 20 µM) in assay [3].
For `COc1cc(O)ccc1CCCc1cc(O)c(O)c(CC=C(C)C)c1CC=C(C)C` [KAZINOL J], in that order: greater than 10 µg/mL, greater than 10 µg/mL and greater than 10 µg/mL.
On to `CC(C)=CCc1cc(-c2oc3c4c(cc(O)c3c(=O)c2O)OC(C)C4(C)C)cc(O)c1O` (stereo unspecified) [BROUSSONOL C], for which the figures for the EC50 in assay [1], in assay [2] and in assay [3] were 9.63 µg/mL (≈ 22 µM), greater than 10 µg/mL and 7.77 µg/mL (≈ 17.7 µM), respectively.
For `CC1Oc2cc(O)c3c(=O)c(O)c(-c4cc(O)c5c(c4)C=CC(C)(C)O5)oc3c2C1(C)C` (stereo unspecified) [BROUSSONOL B], in that order: 8.8 µg/mL (≈ 20.2 µM), greater than 10 µg/mL and 5.52 µg/mL (≈ 12.6 µM).
For `CC(C)=CCc1cc(-c2oc3cc(O)c(CC=C(C)C)c(O)c3c(=O)c2O)cc(O)c1O` [BROUSSONOL E], in that order: greater than 10 µg/mL, greater than 10 µg/mL and greater than 10 µg/mL.
